This is an account of results in ChEMBL document CHEMBL1201862, “PubChem BioAssay data set” (2004).

Some test systems named below: COLO 205; EKVX; Hs-578T; TK-10; OVCAR-5; KM12; NCI-H226; HCT-116; ACHN; SK-MEL-5; MDA-N; U-251; RPMI-8226; HL-60; M14; Malme-3M; SK-MEL-2; MDA-MB-231; OVCAR-4; NCI-H522.
What all share (experiment): NCI-60 cell line screen, 48 h

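The compound was tested at five concentrations on cells cultured in 96-well plates, with a 48-hour exposure period. The concentration for 50% growth inhibition is given as GI50.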 Activity calls are given as the source filed them. Rule as the data show it: active = GI50 up to about 1.1 µM and inactive = higher.

With `COc1cc(COC(=O)N2CC=CC2C(=O)O)c([N+](=O)[O-])cc1OC` (stereo not drawn), the GI50 with COLO 205, with EKVX, in the experiment on Hs-578T, in the experiment with TK-10, in the experiment on OVCAR-5 and in the experiment with KM12 was > 100 µM (inactive) in each case. Further, the GI50 with NCI-H226, in the experiment on HCT-116, in the experiment with ACHN, in the experiment with SK-MEL-5, in the experiment with MDA-N and in the experiment with U-251 was > 100 µM (inactive) each time. The GI50 with RPMI-8226, in the experiment on HL-60, in the experiment with M14 and in the experiment on Malme-3M was > 100 µM (inactive) each time.

Take `CS(=O)(=O)O[C@H]1CN2C[C@@H](O)[C@@H](O)[C@H]2[C@H]1CO.[B]`: the GI50 with COLO 205, with EKVX, in the experiment on TK-10, with OVCAR-5, in the experiment on KM12 and with NCI-H226 was > 100 µM (inactive) each time. In addition, the GI50 in the experiment with HCT-116, in the experiment on ACHN, in the experiment with SK-MEL-5, in the experiment with SK-MEL-2, in the experiment with U-251 and with RPMI-8226 was > 100 µM (inactive) each time. Also, the GI50 in the experiment on M14, in the experiment on Malme-3M, in the experiment on MDA-MB-231 and in the experiment with OVCAR-4 was > 100 µM (inactive) throughout.

As to `N#Cc1cc(-c2nc3cc(F)ccc3s2)ccc1N`, the GI50 in the experiment with COLO 205 was 1.8 µM (inactive); in the experiment on EKVX it was 0.253 µM (active); with Hs-578T it was 15.8 µM (inactive); in the experiment on TK-10 it was 0.034 µM (active); in the experiment on OVCAR-5 it was 0.0702 µM (active); in the experiment on KM12, 0.059 µM (active). For the same compound, the GI50 in the experiment on NCI-H522 is > 53.1 µM (inactive); in the experiment on NCI-H226, 3.34 µM (inactive); in the experiment with HCT-116, 9.51 µM (inactive); in the experiment on ACHN, 1.36 µM (inactive); in the experiment with SK-MEL-2, 29.3 µM (inactive); with U-251, 12.4 µM (inactive). The GI50 in the experiment on RPMI-8226 was > 100 µM (inactive); in the experiment with HL-60, > 100 µM (inactive); in the experiment with M14, 33.6 µM (inactive); with Malme-3M it was > 79.1 µM (inactive); with MDA-MB-231, 8.83 µM (inactive); with OVCAR-4 it was 0.718 µM (active).

With `COC1OC(C)C(NC(=O)OCC(Cl)(Cl)Cl)C2OC(C)(C)OC12` (stereo not drawn), the GI50 in the experiment with COLO 205, in the experiment on EKVX, in the experiment on Hs-578T, in the experiment with TK-10, in the experiment with OVCAR-5 and in the experiment with KM12 was > 100 µM (inactive) each time. Moreover, the GI50 in the experiment with NCI-H522, in the experiment with NCI-H226, with HCT-116, with ACHN, with SK-MEL-5 and with U-251 was > 100 µM (inactive) each time. The GI50 with RPMI-8226, in the experiment on HL-60, with M14, in the experiment with Malme-3M, with MDA-MB-231 and in the experiment with OVCAR-4 was > 100 µM (inactive) each time.

Regarding `CC(=O)OC12c3ccccc3C(c3ccccc31)C1C(=O)N(c3ccccc3O)C(=O)C12` (stereo not drawn), the GI50 with COLO 205 was > 100 µM (inactive); with EKVX, > 100 µM (inactive); in the experiment with Hs-578T, > 100 µM (inactive); in the experiment with TK-10, > 100 µM (inactive); with OVCAR-5 it was > 100 µM (inactive); in the experiment with KM12, 92.7 µM (inactive). Further, the GI50 in the experiment with NCI-H226, in the experiment on HCT-116, in the experiment on ACHN, with SK-MEL-5, with MDA-N and with U-251 was > 100 µM (inactive) in each case. For the same compound, the GI50 with RPMI-8226 is 66.5 µM (inactive); in the experiment on HL-60, 76.9 µM (inactive); with M14, > 100 µM (inactive); in the experiment on Malme-3M, 90.4 µM (inactive); with MDA-MB-231 it was > 100 µM (inactive); in the experiment with OVCAR-4, > 100 µM (inactive).

Regarding `CCCNC(=O)Nc1ccc2c(c1)Cc1cc(N(CCCl)CCCl)ccc1-2`, the GI50 is 8.32 µM (inactive) in the experiment with COLO 205; 18.6 µM (inactive) in the experiment with EKVX; 25.6 µM (inactive) with Hs-578T; 61.9 µM (inactive) with TK-10; 76 µM (inactive) with OVCAR-5; 22 µM (inactive) in the experiment with KM12. Besides, the GI50 is 17.6 µM (inactive) in the experiment on NCI-H522; 49.9 µM (inactive) in the experiment on HCT-116; 5.47 µM (inactive) in the experiment on ACHN; 13.7 µM (inactive) with SK-MEL-5; 29.2 µM (inactive) in the experiment on SK-MEL-2; 18 µM (inactive) in the experiment with U-251. Further, the GI50 in the experiment with RPMI-8226 was 25.4 µM (inactive); in the experiment on HL-60 it was 5.94 µM (inactive); in the experiment with M14, 79.4 µM (inactive); in the experiment on Malme-3M, 36 µM (inactive); in the experiment with MDA-MB-231, 28.4 µM (inactive).

On to `O=c1c2ccccc2[nH]c2c(Cl)cc(Cl)c(N3CCCCC3)c12`, for which the GI50 in the experiment with COLO 205 is 37.8 µM (inactive); in the experiment with EKVX it was 28.9 µM (inactive); in the experiment with TK-10 it was 39.7 µM (inactive); in the experiment on OVCAR-5, 34.5 µM (inactive); with KM12, 19.1 µM (inactive); in the experiment with NCI-H522 it was 22.1 µM (inactive). The GI50 in the experiment on NCI-H226 was 23.7 µM (inactive); in the experiment with HCT-116, 46.3 µM (inactive); in the experiment on ACHN, 23 µM (inactive); with SK-MEL-5, 34.3 µM (inactive); in the experiment on MDA-N, 24.3 µM (inactive); in the experiment on SK-MEL-2 it was 21.7 µM (inactive). Moreover, the GI50 was 24.4 µM (inactive) in the experiment with U-251; 29.9 µM (inactive) with RPMI-8226; 37.5 µM (inactive) in the experiment with HL-60; 27.3 µM (inactive) in the experiment with M14; 33.6 µM (inactive) in the experiment with MDA-MB-231; 71.6 µM (inactive) in the experiment on OVCAR-4.

Turning to `CN(C)/C=N\c1nncc2[nH]cnc12`, the GI50 in the experiment with COLO 205 was > 100 µM (inactive); with EKVX it was > 100 µM (inactive); in the experiment on TK-10, 73.6 µM (inactive); with OVCAR-5 it was > 100 µM (inactive); in the experiment with KM12, > 100 µM (inactive); in the experiment with NCI-H522 it was > 100 µM (inactive). Further, the GI50 in the experiment with NCI-H226 is > 100 µM (inactive); with HCT-116, 87.3 µM (inactive); in the experiment on ACHN, > 100 µM (inactive); in the experiment with SK-MEL-5 it was > 100 µM (inactive); in the experiment with MDA-N it was 79.8 µM (inactive); in the experiment with SK-MEL-2, > 100 µM (inactive). The GI50 was > 100 µM (inactive) in the experiment with U-251; > 100 µM (inactive) in the experiment with RPMI-8226; > 10 µM (inactive) in the experiment with HL-60; 55.8 µM (inactive) in the experiment with M14; 68.7 µM (inactive) in the experiment on Malme-3M; > 100 µM (inactive) in the experiment on OVCAR-4.

As for `CCOC(=O)[C@@H]1OC(c2ccccc2)O[C@H]1C(=O)OCC`, the GI50 with COLO 205, in the experiment on EKVX, in the experiment on Hs-578T, with TK-10, in the experiment on OVCAR-5 and with KM12 was > 100 µM (inactive) throughout. Also, the GI50 with NCI-H226, with HCT-116, with ACHN, with SK-MEL-5, with MDA-N and in the experiment with SK-MEL-2 was > 100 µM (inactive) throughout. Moreover, the GI50 with U-251, with RPMI-8226, in the experiment on M14, in the experiment on Malme-3M, in the experiment on MDA-MB-231 and in the experiment on OVCAR-4 was > 100 µM (inactive) throughout.

For `N#CCSc1c(-c2ccccc2)c(=O)n(-c2ccccc2)c(=S)n1-c1ccccc1`, the GI50 in the experiment with COLO 205 was > 100 µM (inactive); in the experiment with EKVX, > 100 µM (inactive); with Hs-578T, 51.5 µM (inactive); in the experiment with TK-10, > 100 µM (inactive); with OVCAR-5, > 100 µM (inactive); in the experiment with KM12, > 100 µM (inactive). Also, the GI50 in the experiment with NCI-H522 is > 100 µM (inactive); in the experiment with NCI-H226, > 100 µM (inactive); with HCT-116, > 100 µM (inactive); in the experiment with ACHN, > 100 µM (inactive); in the experiment on SK-MEL-5, 84.5 µM (inactive); with MDA-N it was 95.3 µM (inactive). Further, the GI50 in the experiment on SK-MEL-2, in the experiment on U-251, in the experiment on RPMI-8226, with HL-60, in the experiment on M14 and in the experiment with Malme-3M was > 100 µM (inactive) in each case. Besides, in the experiment on OVCAR-4, the GI50 was > 100 µM (inactive).

On to `COC(=O)c1[nH]c(=S)[nH]c(=O)c1-c1ccc(Cl)cc1`, for which the GI50 with COLO 205, with EKVX, with TK-10, with OVCAR-5, in the experiment on KM12 and with NCI-H522 was > 50 µM (inactive) in each case. For the same compound, the GI50 with NCI-H226, in the experiment on HCT-116, in the experiment on ACHN, in the experiment with SK-MEL-5, with SK-MEL-2 and with U-251 was > 50 µM (inactive) throughout. The GI50 in the experiment on RPMI-8226, in the experiment with HL-60, with M14, with Malme-3M and in the experiment on OVCAR-4 was > 50 µM (inactive) throughout.
